# Reference: patent US10336697B2, “Spiro[cyclobutane-1,3′-indolin]-2′-one derivatives as bromodomain inhibitors” (Orion Corporation, priority 2015, dated 2019)
# Molecular target: Bet BRD4 full length bromo-domain protein (Homo sapiens, UniProt O60885)
# Experiment: Bet bromodomain TR-FRET assay (displacement of acetyl histone peptide)
# Format: binding
# Conditions: Bet BRD4 full length bromodomain protein, 300 nM acetyl histone peptide substrate, read-out: IC50
row,Structure (SMILES),IC50 [nM]
1,"O=C(Nc1cccnc1)c1cc(NS(=O)(=O)c2ccc(F)cc2F)cc2c1NC(=O)C21CCC1 [Compound 51, 5′-(2,4-Difluorophenylsulfonamido)-2′-oxo-N-(pyridin-3-yl)spiro[cyclobutane-1,3′-indoline]-7′-carboxamide]",600 to 1000
2,"O=C1Nc2c(-c3ccc(O)nc3)cc(NS(=O)(=O)c3ccc(F)cc3F)cc2C12CCC2 [Compound 99, 2,4-Difluoro-N-(7′-(6-hydroxypyridin-3-yl)-2′-oxospiro [cyclobutane-1,3′-indolin]-5′-yl)benzenesulfonamide]",600 to 1000
3,"O=C(Nc1ccccn1)c1cc(NS(=O)(=O)c2ccc(F)cc2F)cc2c1NC(=O)C21CCC1 [Compound 49, 5′-(2,4-Difluorophenylsulfonamido)-2′-oxo-N-(pyridin-2-yl)spiro[cyclobutane-1,3′-indoline]-7′-carboxamide]",600 to 1000
4,"CC(C)(C)OC(=O)N1CCC(Nc2cc(NS(=O)(=O)c3ccc(F)cc3F)cc3c2NC(=O)C32CCC2)C(F)C1 (stereo not shown) [Compound 37, tert-Butyl 4-((5′-(2,4-difluorophenylsulfonamido)-2′-oxospiro[cyclobutane-1,3′-indolin]-7′-yl)amino)-3-fluoro piperidine-1-carboxylate]",> 1000
5,"O=C(c1cc(NS(=O)(=O)c2ccc(F)cc2F)cc2c1NC(=O)C21CCC1)N1CCOCC1 [Compound 48, 2,4-Difluoro-N-(7′-(morpholine-4-carbonyl)-2′-oxospiro [cyclobutane-1,3′-indolin]-5′-yl)benzenesulfonamide]",> 1000
6,"CCN(c1cc(OC2CCN(C)CC2)c2c(c1)C1(CCC1)C(=O)N2)S(=O)(=O)c1ccccc1OC [compound 179, N-ethyl-2-methoxy-N-(7′-((1-methylpiperidin-4-yl)oxy)-2′-oxospiro[cyclobutane-1,3′-indolin]-5′-yl)benzenesulfonamide]",> 1000
7,"CN1CCOC(COc2cc(NS(=O)(=O)c3ccc(Cl)cc3F)cc3c2NC(=O)C32CCC2)C1 (stereo not shown) [compound 194, 4-Chloro-2-fluoro-N-(7′-((4-methylmorpholin-2-yl)methoxy)-2′-oxospiro[cyclobutane-1,3′-indolin]-5′-yl)benzenesulfonamide]",< 600
8,"CC(=O)Nc1cc(NS(=O)(=O)c2ccc(F)cc2F)cc2c1NC(=O)C21CCC1 [Compound 63, N-(5′-((2,4-difluorophenyl)sulfonamido)-2′-oxospiro[cyclobutane-1,3′-indolin]-7′-yl)acetamide]",600 to 1000
9,"COc1ccccc1S(=O)(=O)Nc1cc(OCc2cccnc2)c2c(c1)C1(CCC1)C(=O)N2 [Compound 157, 2-Methoxy-N-(2′-oxo-7′-(pyridin-3-ylmethoxy)spiro[cyclobutane-1,3′-indolin]-5′-yl)benzenesulfonamide]",< 600
10,"COc1ccccc1S(=O)(=O)Nc1cc(OC(=O)N2CCOCC2)c2c(c1)C1(CCC1)C(=O)N2 [Compound 170, 5′-((2-Methoxyphenyl)sulfonamido)-2′-oxospiro[cyclobutane-1,3′-indolin]-7′-yl morpholine-4-carboxylate]",< 600
11,"COc1ccccc1S(=O)(=O)Nc1cc(C(C)c2nccs2)c2c(c1)C1(CCC1)C(=O)N2 (stereo not shown) [Compound 177, 2-Methoxy-N-(2′-oxo-7′-(1-(thiazol-2-yl)ethyl)spiro[cyclobutane-1,3′-indolin]-5′-yl)benzenesulfonamide]",< 600
12,"CN1CCC(CNc2cc(NS(=O)(=O)c3ccc(F)cc3F)cc3c2NC(=O)C32CCC2)CC1 [Compound 32, 2,4-Difluoro-N-(7′-(((1-methylpiperidin-4-yl)methyl)amino)-2′-oxospiro[cyclobutane-1,3′-indolin]-5′-yl)benzenesulfonamide]",< 600
13,"COc1ccccc1S(=O)(=O)Nc1cc(OCc2ccc(F)cn2)c2c(c1)C1(CCC1)C(=O)N2 [Compound 148, N-(7′-((5-fluoropyridin-2-yl)methoxy)-2′-oxospiro[cyclobutane-1,3′-indolin]-5′-yl)-2-methoxybenzenesulfonamide]",< 600
14,"O=C1Nc2c(NCc3cccnc3)cc(NS(=O)(=O)c3ccc(F)cc3F)cc2C12CCC2 [Compound 27, 2,4-difluoro-N-(2′-oxo-7′-((pyridin-3-ylmethyl)amino)spiro[cyclobutane-1,3′-indolin]-5′-yl)benzenesulfonamide]",< 600
15,"COc1ccccc1S(=O)(=O)Nc1cc(OC2CCNCC2)c2c(c1)C1(CCC1)C(=O)N2 [compound 199, 2-Methoxy-N-(2′-oxo-7′-(piperidin-4-yloxy)spiro[cyclobutane-1,3′-indolin]-5′-yl)benzenesulfonamide]",< 600
16,"COc1ccccc1S(=O)(=O)Nc1cc(NC2CCCN(C)C2)c2c(c1)C1(CCC1)C(=O)N2 (stereo not shown) [Compound 38, 2-Methoxy-N-(7′-((1-methylpiperidin-3-yl)amino)-2′-oxospiro[cyclobutane-1,3′-indolin]-5′-yl)benzenesulfonamide]",< 600
17,"COc1ccccc1S(=O)(=O)Nc1cc(C(=O)NC2CCN(C)CC2)c2c(c1)C1(CCC1)C(=O)N2 [Compound 60, 5′-(2-Methoxyphenylsulfonamido)-N-(1-methylpiperidin-4-yl)-2′-oxospiro[cyclobutane-1,3′-indoline]-7′-carboxamide]",< 600
18,"O=C1Nc2c(OCCc3ccccn3)cc(NS(=O)(=O)c3ccc(Cl)cc3F)cc2C12CCC2 [Compound 159, 4-Chloro-2-fluoro-N-(2′-oxo-7′-(2-(pyridin-2-yl)ethoxy)spiro[cyclobutane-1,3′-indolin]-5′-yl)benzenesulfonamide]",< 600
19,"COc1ccccc1S(=O)(=O)Nc1cc(OC2CCN(C3CC3)CC2)c2c(c1)C1(CCC1)C(=O)N2 [Compound 137, N-(7′-((1-cyclopropylpiperidin-4-yl)oxy)-2′-oxospiro[cyclobutane-1,3′-indolin]-5′-yl)-2-methoxybenzenesulfonamide]",< 600
20,"COc1ccccc1S(=O)(=O)Nc1cc(OC(C)CN(C)C)c2c(c1)C1(CCC1)C(=O)N2 (stereo not shown) [Compound 166, N-(7′-((1-(dimethylamino)propan-2-yl)oxy)-2′-oxospiro[cyclobutane-1,3′-indolin]-5′-yl)-2-methoxybenzenesulfonamide]",< 600
21,"COc1ccccc1S(=O)(=O)Nc1cc(OC2CCOCC2)c2c(c1)C1(CCC1)C(=O)N2 [Compound 141, 2-Methoxy-N-(2′-oxo-7′-((tetrahydro-2H-pyran-4-yl)oxy)spiro[cyclobutane-1,3′-indolin]-5′-yl)benzenesulfonamide]",< 600
22,"COc1ccccc1S(=O)(=O)Nc1cc(Cc2cccc(F)c2)c2c(c1)C1(CCC1)C(=O)N2 [Compound 10, N-(7′-(3-fluorobenzyl)-2′-oxospiro[cyclobutane-1,3′-indolin]-5′-yl)-2-methoxybenzenesulfonamide]",< 600
23,"O=C(O)c1cc(NS(=O)(=O)c2ccc(F)cc2F)cc2c1NC(=O)C21CCC1 [Compound 42, 5′-((2,4-difluorophenyl)sulfonamido)-2′-oxospiro[cyclobutane-1,3′-indoline]-7′-carboxylic acid]",600 to 1000

# Results, then the molecule that gave them:
row,IC50 [nM],Structure (SMILES)
1,< 600,"COc1ccc(S(=O)(=O)Nc2cc(Cc3cccc(F)c3)c3c(c2)C2(CCC2)C(=O)N3)c(F)c1 [Compound 95, 2-Fluoro-N-(7′-(3-fluorobenzyl)-2′-oxospiro[cyclobutane-1,3′-indolin]-5′-yl)-4-methoxybenzenesulfonamide]"
2,< 600,"CN1CCC(Oc2cc(N(C)S(=O)(=O)c3ccc(F)cc3F)cc3c2NC(=O)C32CCC2)CC1 [compound 180, 2,4-Difluoro-N-methyl-N-(7′-((1-methylpiperidin-4-yl)oxy)-2′-oxospiro[cyclobutane-1,3′-indolin]-5′-yl)benzenesulfonamide]"
3,< 600,CN1CCC(Oc2cc(NS(=O)(=O)c3ccc(F)cc3F)cc3c2NC(=O)C32CCC2)CC1 [Compound 171]
4,< 600,"COc1ccccc1S(=O)(=O)Nc1cc(C(C)c2cccnc2)c2c(c1)C1(CCC1)C(=O)N2 (stereo not shown) [Compound 122, 2-Methoxy-N-(2′-oxo-7′-(1-(pyridin-3-yl)ethyl)spiro[cyclobutane-1,3′-indolin]-5′-yl)benzenesulfonamide]"
5,< 600,"O=C(NC1CCCNC1)c1cc(NS(=O)(=O)c2ccc(F)cc2F)cc2c1NC(=O)C21CCC1 (single isomer, unassigned) [Compound 68, 5′-(2,4-Difluorophenylsulfonamido)-2′-oxo-N-(piperidin-3-yl)spiro[cyclobutane-1,3′-indoline]-7′-carboxamide]"
6,< 600,"O=C1NCCc2ccc(-c3cc(NS(=O)(=O)c4ccc(F)cc4F)cc4c3NC(=O)C43CCC3)cc21 [Compound 4, 2,4-Difluoro-N-(2′-oxo-7′-(1-oxo-1,2,3,4-tetrahydroisoquinolin-7-yl)spiro[cyclobutane-1,3′-indolin]-5′-yl)benzenesulfonamide]"
7,< 600,"COc1cc(F)ccc1S(=O)(=O)Nc1cc(OC2CCN(C)CC2)c2c(c1)C1(CCC1)C(=O)N2 [Compound-189, 4-Fluoro-2-methoxy-N-(7′-((1-methylpiperidin-4-yl)oxy)-2′-oxospiro[cyclobutane-1.3′-indolin]-5′-yl)benzenesulfonamide]"
8,< 600,"COc1ccccc1S(=O)(=O)Nc1cc(Cc2cccnc2)c2c(c1)C1(CCC1)C(=O)N2 [Compound 87, 2-Methoxy-N-(2′-oxo-7′-(pyridin-3-ylmethyl)spiro[cyclobutane-1,3′-indolin]-5′-yl)benzenesulfonamide]"
9,< 600,"COc1ccccc1S(=O)(=O)Nc1cc(NC2CCN(C)CC2)c2c(c1)C1(CCC1)C(=O)N2 [Compound 39, 2-Methoxy-N-(7′-((1-methylpiperidin-4-yl)amino)-2′-oxospiro[cyclobutane-1,3′-indolin]-5′-yl)benzenesulfonamide]"
10,< 600,"CN1CCC(NC(=O)c2cc(NS(=O)(=O)c3ccccc3F)cc3c2NC(=O)C32CCC2)CC1 [Compound 73, 5′-(2-Fluorophenylsulfonamido)-N-(1-methylpiperidin-4-yl)-2′-oxospiro[cyclobutane-1,3′-indoline]-7′-carboxamide]"
11,< 600,"CN1CCCC(Nc2cc(NS(=O)(=O)c3ccc(F)cc3F)cc3c2NC(=O)C32CCC2)C1 (stereo not shown) [Compound 16, 2,4-difluoro-N-(7′-((1-methylpiperidin-3-yl)amino)-2′-oxospiro [cyclobutane-1,3′-indolin]-5′-yl)benzenesulfonamide]"
